Reference: publication PMC11912484 (Journal of Medicinal Chemistry, 2025)
≈ marks a conversion by molar mass, not a printed value. Entries after “also recorded” stand apart in the source; their conditions may differ. Like-named read-outs stand apart in the source and are kept apart here.

Assays:
MbtI [1] = molecular target: T1, MbtI (Mycobacterium tuberculosis, UniProt P9WFX1); assay: MbtI fluorimetric enzyme inhibition assay; type: biochemical; conditions: for % RA (percentage of residual enzymatic activity) / remaining activity at 100 µM: 100 μM test compound, 50 μM chorismic acid; for remaining activity at 100 µM: read-out: % RA (percentage of residual enzymatic activity); for IC50: recombinant MbtI
T1 construct: made in house
T1 sequence (P9WFX1 whole entry): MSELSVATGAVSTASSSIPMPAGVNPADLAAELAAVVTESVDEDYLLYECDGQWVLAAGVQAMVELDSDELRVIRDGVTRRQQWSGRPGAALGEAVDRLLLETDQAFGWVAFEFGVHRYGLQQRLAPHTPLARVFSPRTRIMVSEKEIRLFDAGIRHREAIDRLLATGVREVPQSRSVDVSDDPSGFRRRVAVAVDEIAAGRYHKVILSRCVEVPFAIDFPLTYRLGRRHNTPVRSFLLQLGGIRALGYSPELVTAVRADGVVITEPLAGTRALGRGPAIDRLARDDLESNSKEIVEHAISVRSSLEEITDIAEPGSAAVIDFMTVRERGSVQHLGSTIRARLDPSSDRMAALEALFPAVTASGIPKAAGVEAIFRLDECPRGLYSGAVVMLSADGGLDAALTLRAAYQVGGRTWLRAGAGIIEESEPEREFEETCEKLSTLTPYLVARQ
Experimental: MbtI from Mtb was produced in recombinant form, and enzyme activity was determined using a fluorimetric assay, as previously reported.[38] For the inhibition studies, the activity was determined in the presence of 100 μM of the test compound and 50 μM of chorismic acid. For compounds that inhibited more than 80% of the initial activity, IC50 values were calculated using eq 1 and GraphPad Prism 8.0 software [drawing 1] 1 where A[I] is the activity at inhibitor concentration [I] and A[0] is the activity in the absence of the inhibitor.

M. bovis BCG [2] = assay: microbe, parasite or virus in culture; type: cell-based; conditions: for MIC99: Mycobacterium tuberculosis variant bovis BCG, BCG; for antimycobacterial effect (in words): M. bovis BCG, REMA
[3] = test system: mycobacterial efflux pumps; type: cell-based, M. bovis BCG; conditions: MIC99 with reserpine 32 μg/mL or verapamil 125 μg/mL (1/2 MIC)
M. bovis BCG [4] = conditions: cited from earlier work
Mtb H37Rv = test system: Mtb H37Rv; design: method as in PMID 32530281; conditions: compound I; cited from earlier work
human cell lines = test system: human cell lines; design: method as in PMID 30889995, PMID 36015139; conditions: several human cell lines; cited from earlier work
Polymersome size by DLS = type: physicochemical; conditions: three independent batches
Experimental: The purified solutions were then analyzed by Transmission Electron Microscopy (TEM) on a Jeol JEM 1010 100 kV microscope, equipped with a Megaview 1kx1k CCD (Jeol Ltd., Tokyo, Japan). Copper grids were glow-discharged, and the sample was adsorbed onto the grid. The sample was stained with 1 wt % phosphotungstic acid (PTA) adjusted to pH 7.4 with NaOH. All the TEM analyses were performed with dried samples. The nanoparticle size distribution was characterized by DLS analyses (DLS PN3704 Zetasizer, Malvern Panalytical) using a copolymer concentration of 0.20 mg/mL. For each analysis, 3 measurements were carried out, based on 11 runs. Samples were analyzed at 25 °C with a scattering angle of 173° and a 633 nm HeNe laser, based on a material refractive index (RI) of 1.59, a dispersant refractive index of 1.330, and a viscosity of 0.89. Drug encapsulation was measured by RP-HPLC (Dionex UltiMate 3000, ThermoFisher Scientific). A gradient of water + TFA 0.05% (A) and MeOH + TFA 0.05% (B) from 0 min (30% B) to 30 min (100% B) was used to run the samples through a Jupiter 5 μm C18 300 Å, 150 × 4.6 mm column (Phenomenex, Torrance, CA). The peak area was integrated by using Chromeleon version 6.8 (ThermoFisher Scientific).

[5] = test system: mouse alveolar-like macrophages (MPI-2 cell line); assay: MTT viability assay on mAMs; type: cell-based; conditions: 24 h exposure, 200, 100, 50 and 25 μM
Experimental: Cell viability was evaluated on human monocytes (THP-1 cell line), human lung fibroblasts (HLF cell line), and mouse alveolar-like macrophages (MPI-2 cell line) using the thiazolyl blue tetrazolium bromide method (MTT; chemicals acquired from Sigma-Aldrich, Merck KGaA).

MbtI [6] = molecular target: T1, MbtI; conditions: compound II; cited from earlier work
[7] = test system: Mtb-infected murine alveolar-like macrophages (mAMs); type: cell-based, Mycobacterium tuberculosis
siderophore production = type: cell-based; conditions: M. bovis BCG grown with different concentrations of compound
M. bovis BCG [8] = type: cell-based; conditions: 1 × MIC and 10 × MIC, low-iron chelated Sauton's medium

Structure (SMILES) | remaining activity at 100 µM (MbtI [1]) [%] | IC50 (MbtI [1]) [µM] | MIC99 (M. bovis BCG [2]) [µM] | also measured
CCCCCCCCOc1cc(C#N)cc(-c2ccc(C(=O)O)o2)c1 [Compound 1l, 5-(3-Cyano-5-(octyloxy)phenyl)furan-2-carboxylic Acid] | 40 |  |  | % RA (percentage of residual enzymatic activity) (MbtI [1]): 40.0 ± 4.1%
CC(C)CCOc1cc(C#N)cc(-c2ccc(C(=O)O)o2)c1 [Compound 1j, 5-(3-Cyano-5-(isopentyloxy)phenyl)furan-2-carboxylic Acid] | 1.6 ± 1.4 | 22 ± 1.8 | 125 (≈ 37.4 µg/mL) | 
CCCCOc1cc(C#N)cc(-c2ccc(C(=O)O)o2)c1 [Compound 1d, 5-(3-Butoxy-5-cyanophenyl)furan-2-carboxylic Acid] | < 1 | 0.9 ± 0.2 | 63 (≈ 18 µg/mL) | substrate of mycobacterial efflux pumps [3]: not substrates of efflux pumps
N#Cc1cccc(-c2ccc(C(=O)O)o2)c1 [I] |  |  |  | MIC99 (M. bovis BCG [4]; compound I, M. bovis BCG): 250 µM (≈ 53.3 µg/mL); MIC99 (Mtb H37Rv): 250 µM (≈ 53.3 µg/mL); safety on human cell lines (human cell lines): safe on several human cell lines
CCCOC(=O)c1ccc(-c2cc(C#N)cc(OCC(C)C)c2)o1 [Compound 2eb, Propyl 5-(3-Cyano-5-isobutoxyphenyl)furan-2-carboxylate] | 94 ± 9.3 |  | 125 (≈ 40.9 µg/mL) | average size (hydrodynamic diameter) of drug-containing POs (Polymersome size by DLS): 45.68 ± 1.86 nm; mAM viability / cytotoxic effect [5]: increase in mAM mortality at the two highest tested concentrations (200 and 100 μM)
N#Cc1cc(OCCOc2ccccc2)cc(-c2ccc(C(=O)O)o2)c1 [II] |  |  |  | IC50 (MbtI [6]): 12.1 µM; MIC99 (M. bovis BCG [4]; compound II): 63 µM (≈ 22 µg/mL)
CCCOc1cc(C#N)cc(-c2ccc(C(=O)O)o2)c1 [Compound 1c, 5-(3-Cyano-5-propoxyphenyl)furan-2-carboxylic Acid] | 2.5 ± 0.4 | 18.5 ± 0.9 | 250 (≈ 67.8 µg/mL) | 
CCOc1cc(C#N)cc(-c2ccc(C(=O)O)o2)c1 [Compound 1a, 5-(3-Cyano-5-ethoxyphenyl)furan-2-carboxylic Acid] | 4.9 ± 2.3 | 11.8 ± 0.6 | > 500 | 
CCCCCOc1cc(C#N)cc(-c2ccc(C(=O)O)o2)c1 [Compound 1i, 5-(3-Cyano-5-(pentyloxy)phenyl)furan-2-carboxylic Acid] | 0.4 ± 0.2 | 6.8 ± 0.1 | 125 (≈ 37.4 µg/mL) | 
CO[C@H]1/C=C/O[C@@]2(C)Oc3c(C)c(O)c4c(O)c(c(/C=N/N5CCN(C)CC5)c(O)c4c3C2=O)NC(=O)/C(C)=C\C=C\[C@H](C)[C@H](O)[C@@H](C)[C@@H](O)[C@@H](C)[C@H](OC(C)=O)[C@@H]1C [Rifampicin, reference compound] |  |  |  | time of peak effect on Mtb fluorescence ([7]; 1 μg/mL (2x MIC), positive control): 3 day post-treatment
N#Cc1cc(OCC2CC2)cc(-c2ccc(C(=O)O)o2)c1 [Compound 1f, 5-(3-Cyano-5-(cyclopropylmethoxy)phenyl)furan-2-carboxylic Acid] | 20 |  | 125 (≈ 35.4 µg/mL) | % RA (percentage of residual enzymatic activity) (MbtI [1]): 20.6 ± 2.4%
CC(C)COc1cc(C#N)cc(-c2ccc(C(=O)O)o2)c1 [Compound 1e, 5-(3-Cyano-5-isobutoxyphenyl)furan-2-carboxylic Acid] | 7 ± 3.1 | 11.2 ± 1.5 | 32 (≈ 9.13 µg/mL) | siderophore production (CAS assay) (siderophore production): acted by impairing the production of siderophores; time-killing behaviour (M. bovis BCG [8]): bacteriostatic activity; substrate of mycobacterial efflux pumps [3]: not substrates of efflux pumps; reduction in Mtb intracellular burden by the free compound [7]: did not exhibit significant activity on infected macrophages; also recorded: detected only at the highest tested concentration (200 μM)
CC(C)(C)COc1cc(C#N)cc(-c2ccc(C(=O)O)o2)c1 [Compound 1h, 5-(3-Cyano-5-(neopentyloxy)phenyl)furan-2-carboxylic Acid] | 6.8 ± 3.1 | 18.6 ± 1.5 | 125 (≈ 37.4 µg/mL) | 
C/C=C/C=C/C=C/COc1cc(C#N)cc(-c2ccc(C(=O)O)o2)c1 [Compound 1o, 5-(3-Cyano-5-((2E,4E,6E)-octa-2,4,6-trien-1-yloxy)phenyl)furan-2-carboxylic Acid] | 18.4 ± 3.8 | 9.2 ± 2.4 | > 500 | antimycobacterial effect (in words) (M. bovis BCG [2]): completely abolished the antimycobacterial effect
C/C=C/C=C/COc1cc(C#N)cc(-c2ccc(C(=O)O)o2)c1 [Compound 1n, 5-(3-Cyano-5-((2E,4E)-hexa-2,4-dien-1-yloxy)phenyl)furan-2-carboxylic Acid] | 10 ± 3.6 | 16.6 ± 2.1 | > 500 | antimycobacterial effect (in words) (M. bovis BCG [2]): completely abolished the antimycobacterial effect
N#Cc1cc(OCC2CCC2)cc(-c2ccc(C(=O)O)o2)c1 [Compound 1g, 5-(3-Cyano-5-(cyclobutylmethoxy)phenyl)furan-2-carboxylic Acid] | 30 |  | 250 (≈ 74.3 µg/mL) | % RA (percentage of residual enzymatic activity) (MbtI [1]): 30.4 ± 6.3%
CCCCCCOc1cc(C#N)cc(-c2ccc(C(=O)O)o2)c1 [Compound 1k, 5-(3-Cyano-5-(hexyloxy)phenyl)furan-2-carboxylic Acid] | 6 ± 6.1 | 9.9 ± 1.3 | 63 (≈ 19.7 µg/mL) | substrate of mycobacterial efflux pumps [3]: not substrates of efflux pumps
CC(C)Oc1cc(C#N)cc(-c2ccc(C(=O)O)o2)c1 [Compound 1b, 5-(3-Cyano-5-isopropoxyphenyl)furan-2-carboxylic Acid] | 12.1 ± 2.9 | 21.1 ± 0.6 | > 500 | 
CC=CCOc1cc(C#N)cc(-c2ccc(C(=O)O)o2)c1 [Compound 1m, 5-(3-(But-2-en-1-yloxy)-5-cyanophenyl)furan-2-carboxylic Acid] | 7.5 ± 0.3 | 3.1 ± 0.7 | 125 (≈ 35.4 µg/mL) | 
CCOC(=O)c1ccc(-c2cc(C#N)cc(OCC(C)C)c2)o1 [Compound 2ea, Ethyl 5-(3-Cyano-5-isobutoxyphenyl)furan-2-carboxylate] | 71.5 ± 7.6 |  | 64 (≈ 20.1 µg/mL) | average size (hydrodynamic diameter) of drug-containing POs (Polymersome size by DLS): 44.46 ± 9.58 nm; mAM viability / cytotoxic effect [5]: increase in mAM mortality at the two highest tested concentrations (200 and 100 μM)
